Assay results: patent US12692253B2, “Antimicrobial compounds and methods” (Curza Global, LLC, priority 2019, dated 2026)
Read-outs that look alike come from different tables or passages of the source.

Experiments:
[1] = test system: E. coli S30 extract (bacterial protein synthesis); assay: E. coli S30 extract coupled transcription-translation luciferase assay (inhibition of bacterial protein synthesis); assay type: biochemical; conditions: read-out: S30 IC50 (μM/% inhib.)
Method in brief: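 Luciferase luminescence quantified inhibition of protein synthesis relative to water controls, with no-DNA reactions giving background. Compounds in 2-fold serial dilution (8 levels) were incubated 1 hour at 37 °C with E. coli S30 extract, amino acids and pBESTluc plasmid, then chilled to stop.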

[2] = target: Rabbit Reticulocyte Lysate (eukaryotic protein synthesis); assay: Rabbit reticulocyte lysate luciferase assay (inhibition of eukaryotic protein synthesis); assay type: biochemical; conditions: read-out: Rabbit reticulocyte IC50 (μM/% inhib.)
Method in brief: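 Percent inhibition calculated against water-only controls from luminescence; background set by lysate lacking RNA. Compounds, 8-point 2-fold titration, incubated 90 minutes at 30° C with nuclease-treated rabbit reticulocyte lysate programmed with luciferase control RNA plus complete amino acids.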

A. baumannn (Ab) = assay: Broth microdilution minimum inhibitory concentration (MIC), CLSI; assay type: cell-based; conditions: read-out: Ab + bicarb MIC
Method in brief: (§1)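 Modified CLSI method: CAMHB (± bicarbonate 6.25/25 mM or 0-50% human serum), 8-point two-fold series, triplicates, 5×10^4 CFU/well.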

E. coli (Ec) = assay: as above; assay type: cell-based; conditions: Escherichia coli, read-out: E. coli + bicarb MIC
Method in brief: as §1

E. faecalis (Ef) = assay: as above; assay type: cell-based; conditions: Enterococcus faecalis, read-out: Ef + bicarb MIC
Method in brief: as §1

P. aeruginosa (Pa) = assay: as above; assay type: cell-based; conditions: Pseudomonas aeruginosa, read-out: Pa MIC + bicarb
Method in brief: as §1

S. aureus (Sa) = assay: as above; assay type: cell-based; conditions: Staphylococcus aureus, read-out: Sa + bicarb MIC
Method in brief: as §1

[3] = class by IC50 or % inhibition @ 1 μM
[4] = growth medium supplemented with sodium bicarbonate
[5] = A. baumannn, growth medium with sodium bicarbonate
[6] = growth medium with sodium bicarbonate

Row | Structure (SMILES) | IC50 [1, 3] [µM] | IC50 [2, 3] [µM] | MIC (A. baumannn (Ab); Acinetobacter baumannii) [µg/mL] | MIC (E. coli (Ec); [4]) [µg/mL] | MIC (E. faecalis (Ef); [4]) [µg/mL] | MIC (P. aeruginosa (Pa); [4]) [µg/mL] | MIC (S. aureus (Sa); [4]) [µg/mL] | IC50 ([1]; % inhibition @ 1 μM) [µM] | IC50 ([2]; % inhibition @ 1 μM) [µM] | MIC (A. baumannn (Ab); [5]) [µg/mL] | MIC (E. coli (Ec); [6]) [µg/mL] | MIC (E. faecalis (Ef); [6]) [µg/mL] | MIC (P. aeruginosa (Pa); [6]) [µg/mL] | MIC (S. aureus (Sa); [6]) [µg/mL]
1 | CCCC(Cc1ccc(-n2ccc(NC(=O)N3CCN(C(=O)C(C)(C)N)CC3)nc2=O)cc1)N1C[C@@H]2[C@@H](CN)[C@@H]2C1 (stereo partly drawn) [Compound 150] | < 0.5 | ≥ 1 | < 8 | < 8 | < 8 | < 8 | < 8 | – | – | – | – | – | – | –
2 | CCC(Cc1ccc(-n2ccc(NC(=O)N3CCN(C(=O)[C@@](C)(N)CO)CC3)nc2=O)cc1)N1C[C@@H]2[C@@H](CN)[C@@H]2C1 (stereo partly drawn) [Compound 151] | < 0.5 | ≥ 1 | 8 to 32 | < 8 | < 8 | 8 to 32 | < 8 | – | – | – | – | – | – | –
3 | CC[C@@H](N)C1[C@H]2CN(CCc3ccc(-n4ccc(NC(=O)N5CCN(C(=O)C(C)(C)N)CC5)nc4=O)cc3)C[C@@H]12 (stereo partly drawn) [Compound 152] | ≥ 1 | ≥ 1 | > 32 | 8 to 32 | > 32 | > 32 | > 32 | – | – | – | – | – | – | –
4 | CCCC(Cc1ccc(-n2ccc(NC(=O)N3CCN(C(=O)C(C)(C)N)CC3)nc2=O)cc1F)N1C[C@@H]2[C@@H](CN)[C@@H]2C1 (stereo partly drawn) [Compound 153] | < 0.5 | ≥ 1 | < 8 | < 8 | < 8 | 8 to 32 | < 8 | – | – | – | – | – | – | –
5 | CCC(Cc1ccc(-n2ccc(NC(=O)N3CCN(C(=O)C(C)(C)N)CC3)nc2=O)cc1F)N1C[C@@H]2[C@@H](CN)[C@@H]2C1 (stereo partly drawn) [Compound 154] | < 0.5 | ≥ 1 | < 8 | < 8 | < 8 | < 8 | < 8 | – | – | – | – | – | – | –
6 | CC(C)C(Cc1ccc(-n2ccc(NC(=O)N3CCN(C(=O)C(C)(C)N)CC3)nc2=O)cc1)N1C[C@@H]2[C@@H](CN)[C@@H]2C1 (stereo partly drawn) [Compound 155] | < 0.5 | ≥ 1 | < 8 | < 8 | < 8 | < 8 | < 8 | – | – | – | – | – | – | –
7 | CC(C)CC(Cc1ccc(-n2ccc(NC(=O)N3CCN(C(=O)C(C)(C)N)CC3)nc2=O)cc1)N1C[C@@H]2[C@@H](CN)[C@@H]2C1 (stereo partly drawn) [Compound 156] | < 0.5 | ≥ 1 | < 8 | < 8 | < 8 | < 8 | < 8 | – | – | – | – | – | – | –
8 | CC(Cc1ccc(-n2ccc(NC(=O)N3CCN(C(=O)C(C)(C)N)CC3)nc2=O)cc1)N1C[C@@H]2[C@@H](CN)[C@@H]2[C@H]1CO (stereo partly drawn) [Compound 157] | < 0.5 | ≥ 1 | > 32 | < 8 | 8 to 32 | > 32 | < 8 | – | – | – | – | – | – | –
9 | CC(C)(N)C(=O)N1CCN(C(=O)Nc2ccn(-c3ccc(CCN4CC5(CNC5)C4)cc3)c(=O)n2)CC1 [Compound 160] | ≥ 1 | ≥ 1 | > 32 | < 8 | > 32 | > 32 | > 32 | – | – | – | – | – | – | –
10 | CC(C)(N)C(=O)N1CCN(C(=O)Nc2ccn(-c3ccc(CCN4CCC5(CCNC5)C4)cc3)c(=O)n2)CC1 (stereo not drawn) [Compound 161] | < 0.5 | ≥ 1 | > 32 | < 8 | 8 to 32 | > 32 | < 8 | – | – | – | – | – | – | –
11 | CC(Cc1ccc(-n2ccc(NC(=O)N3CCN(C(=O)C(C)(C)N)CC3)nc2=O)cc1)N1CC2(CNC2)C1 (stereo not drawn) [Compound 162] | ≥ 1 | ≥ 1 | > 32 | 8 to 32 | > 32 | > 32 | 8 to 32 | – | – | – | – | – | – | –
12 | CC(Cc1ccc(-n2ccc(NC(=O)N3CCN(C(=O)C(C)(C)N)CC3)nc2=O)cc1)N1CCC2(CC1)CNC2 (stereo not drawn) [Compound 163] | – | – | – | – | – | – | – | ≥ 1 | ≥ 1 | > 32 | < 8 | > 32 | > 32 | < 8
13 | CN(Cc1ccc(-n2ccc(NC(=O)N3CCN(C(=O)C(C)(C)N)CC3)nc2=O)cc1)C12CCC(N)(CC1)C2 [Compound 164] | – | – | – | – | – | – | – | < 0.5 | ≥ 1 | 8 to 32 | < 8 | < 8 | > 32 | < 8
14 | CN(Cc1ccc(-n2ccc(NC(=O)N3CCN(C(=O)C(C)(C)N)CC3)nc2=O)cc1)C12CCC(N)(CC1)CC2 [Compound 165] | – | – | – | – | – | – | – | 0.5 to 1 | ≥ 1 | 8 to 32 | < 8 | < 8 | > 32 | < 8
15 | CCN(Cc1ccc(-n2ccc(NC(=O)N3CCN(C(=O)C(C)(C)N)CC3)nc2=O)cc1)C12CCC(N)(CC1)C2 [Compound 166] | – | – | – | – | – | – | – | < 0.5 | ≥ 1 | 8 to 32 | < 8 | < 8 | > 32 | < 8
16 | CC(C)(N)C(=O)N1CCN(C(=O)Nc2ccn(-c3ccc(CNC45CCC(N)(CC4)CC5)cc3)c(=O)n2)CC1 [Compound 167] | – | – | – | – | – | – | – | < 0.5 | ≥ 1 | 8 to 32 | < 8 | < 8 | 8 to 32 | < 8
17 | CC(C)(N)C(=O)N1CCN(C(=O)Nc2ccn(-c3ccc(CNC45CCC(N)(CC4)C5)cc3)c(=O)n2)CC1 [Compound 168] | – | – | – | – | – | – | – | < 0.5 | ≥ 1 | > 32 | < 8 | < 8 | > 32 | < 8
18 | CN(Cc1ccc(-n2ccc(NC(=O)N3CCN(C(=O)C(C)(C)N)CC3)nc2=O)cc1)C12CC(N)(C1)C2 [Compound 169] | – | – | – | – | – | – | – | ≥ 1 | ≥ 1 | > 32 | 8 to 32 | > 32 | > 32 | > 32
19 | CCN(Cc1ccc(-n2ccc(NC(=O)N3CCN(C(=O)C(C)(C)N)CC3)nc2=O)cc1)C12CC(N)(C1)C2 [Compound 170] | – | – | – | – | – | – | – | < 0.5 | ≥ 1 | > 32 | < 8 | > 32 | > 32 | > 32
20 | CC(C)(N)C(=O)N1CCN(C(=O)Nc2ccn(-c3ccc(CNC45CC(N)(C4)C5)cc3)c(=O)n2)CC1 [Compound 171] | – | – | – | – | – | – | – | ≥ 1 | ≥ 1 | > 32 | 8 to 32 | > 32 | > 32 | > 32
21 | CCN(Cc1ccc(-n2ccc(NC(=O)N3CCN(C(=O)C(C)(C)N)CC3)nc2=O)cc1)C12CCC(N)(CC1)CC2 [Compound 172] | – | – | – | – | – | – | – | < 0.5 | ≥ 1 | 8 to 32 | < 8 | < 8 | > 32 | < 8
22 | CC(C)(N)C(=O)N1CCN(C(=O)Nc2ccn(-c3ccc(CNC45CC(CN)(C4)C5)cc3)c(=O)n2)CC1 [Compound 173] | – | – | – | – | – | – | – | ≥ 1 | ≥ 1 | > 32 | < 8 | > 32 | > 32 | > 32
23 | CN(Cc1ccc(-n2ccc(NC(=O)N3CCN(C(=O)C(C)(C)N)CC3)nc2=O)cc1)C12CC(CN)(C1)C2 [Compound 174] | – | – | – | – | – | – | – | ≥ 1 | ≥ 1 | > 32 | < 8 | 8 to 32 | > 32 | < 8
24 | CCN(Cc1ccc(-n2ccc(NC(=O)N3CCN(C(=O)C(C)(C)N)CC3)nc2=O)cc1)C12CC(CN)(C1)C2 [Compound 175] | – | – | – | – | – | – | – | ≥ 1 | ≥ 1 | > 32 | < 8 | < 8 | > 32 | < 8
25 | CC(Cc1ccc(-n2ccc(NC(=O)N3CCN(C(=O)C(C)(C)N)CC3)nc2=O)cc1)NC1CC2(CC(N)C2)C1 (stereo not drawn) [Compound 176] | – | – | – | – | – | – | – | ≥ 1 | ≥ 1 | > 32 | < 8 | 8 to 32 | > 32 | < 8
26 | CC(C)(N)C(=O)N1CCN(C(=O)Nc2ccn(-c3ccc(CCNC4CC5(CC(N)C5)C4)cc3)c(=O)n2)CC1 (stereo not drawn) [Compound 177] | – | – | – | – | – | – | – | ≥ 1 | ≥ 1 | > 32 | < 8 | 8 to 32 | > 32 | < 8
27 | CC(C)(N)C(=O)N1CCN(C(=O)Nc2ccn(-c3ccc(C[C@H](N)NN4C[C@@H]5[C@@H](N)[C@@H]5C4)cc3)c(=O)n2)CC1 [Compound 178] | – | – | – | – | – | – | – | ≥ 1 | ≥ 1 | > 32 | > 32 | > 32 | > 32 | > 32
